Laboratory results: patent publication US20250114345A1, “COMPOUNDS AND COMPOSITIONS AS CBP/P300 DEGRADERS AND USES THEREOF” (Oncopia Therapeutics, Inc. d/b/a/ SK Life Science Labs, priority 2023, published 2025)

Assays:
CBP = biological target: T1, CBP (Homo sapiens, UniProt Q92793); assay: CBP degradation, HiBit technology in A549 CBP HiBit cells (24 h); assay type: cell-based; details: 24 hrs post treatment
T1 construct: host or cells: A549 CBP HiBit cells
Summary of the method: (§1)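 A549 cells carrying HiBit-tagged p300 or CBP, seeded overnight at 37 °C/5% CO2, then treated with serial compound dilutions from 10 mM DMSO stocks. Incubation was 2 h for p300 and 24 h for CBP, followed by HiBit lytic detection reagent for 10 min at room temperature. Luminescence read gave degradation potency and Dmax.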

p300 = biological target: T2, p300 (Homo sapiens, UniProt Q09472); assay: P300 degradation, HiBit technology in A549 P300 HiBit cells (2 h); assay type: cell-based; details: 2 hrs post treatment; for Dmax: A549, A549 P300 HiBit cells; for DC50: A549 P300 HiBit cells
T2 construct: host or cells: A549 P300 HiBit cells
T2 sequence (Q09472 whole entry): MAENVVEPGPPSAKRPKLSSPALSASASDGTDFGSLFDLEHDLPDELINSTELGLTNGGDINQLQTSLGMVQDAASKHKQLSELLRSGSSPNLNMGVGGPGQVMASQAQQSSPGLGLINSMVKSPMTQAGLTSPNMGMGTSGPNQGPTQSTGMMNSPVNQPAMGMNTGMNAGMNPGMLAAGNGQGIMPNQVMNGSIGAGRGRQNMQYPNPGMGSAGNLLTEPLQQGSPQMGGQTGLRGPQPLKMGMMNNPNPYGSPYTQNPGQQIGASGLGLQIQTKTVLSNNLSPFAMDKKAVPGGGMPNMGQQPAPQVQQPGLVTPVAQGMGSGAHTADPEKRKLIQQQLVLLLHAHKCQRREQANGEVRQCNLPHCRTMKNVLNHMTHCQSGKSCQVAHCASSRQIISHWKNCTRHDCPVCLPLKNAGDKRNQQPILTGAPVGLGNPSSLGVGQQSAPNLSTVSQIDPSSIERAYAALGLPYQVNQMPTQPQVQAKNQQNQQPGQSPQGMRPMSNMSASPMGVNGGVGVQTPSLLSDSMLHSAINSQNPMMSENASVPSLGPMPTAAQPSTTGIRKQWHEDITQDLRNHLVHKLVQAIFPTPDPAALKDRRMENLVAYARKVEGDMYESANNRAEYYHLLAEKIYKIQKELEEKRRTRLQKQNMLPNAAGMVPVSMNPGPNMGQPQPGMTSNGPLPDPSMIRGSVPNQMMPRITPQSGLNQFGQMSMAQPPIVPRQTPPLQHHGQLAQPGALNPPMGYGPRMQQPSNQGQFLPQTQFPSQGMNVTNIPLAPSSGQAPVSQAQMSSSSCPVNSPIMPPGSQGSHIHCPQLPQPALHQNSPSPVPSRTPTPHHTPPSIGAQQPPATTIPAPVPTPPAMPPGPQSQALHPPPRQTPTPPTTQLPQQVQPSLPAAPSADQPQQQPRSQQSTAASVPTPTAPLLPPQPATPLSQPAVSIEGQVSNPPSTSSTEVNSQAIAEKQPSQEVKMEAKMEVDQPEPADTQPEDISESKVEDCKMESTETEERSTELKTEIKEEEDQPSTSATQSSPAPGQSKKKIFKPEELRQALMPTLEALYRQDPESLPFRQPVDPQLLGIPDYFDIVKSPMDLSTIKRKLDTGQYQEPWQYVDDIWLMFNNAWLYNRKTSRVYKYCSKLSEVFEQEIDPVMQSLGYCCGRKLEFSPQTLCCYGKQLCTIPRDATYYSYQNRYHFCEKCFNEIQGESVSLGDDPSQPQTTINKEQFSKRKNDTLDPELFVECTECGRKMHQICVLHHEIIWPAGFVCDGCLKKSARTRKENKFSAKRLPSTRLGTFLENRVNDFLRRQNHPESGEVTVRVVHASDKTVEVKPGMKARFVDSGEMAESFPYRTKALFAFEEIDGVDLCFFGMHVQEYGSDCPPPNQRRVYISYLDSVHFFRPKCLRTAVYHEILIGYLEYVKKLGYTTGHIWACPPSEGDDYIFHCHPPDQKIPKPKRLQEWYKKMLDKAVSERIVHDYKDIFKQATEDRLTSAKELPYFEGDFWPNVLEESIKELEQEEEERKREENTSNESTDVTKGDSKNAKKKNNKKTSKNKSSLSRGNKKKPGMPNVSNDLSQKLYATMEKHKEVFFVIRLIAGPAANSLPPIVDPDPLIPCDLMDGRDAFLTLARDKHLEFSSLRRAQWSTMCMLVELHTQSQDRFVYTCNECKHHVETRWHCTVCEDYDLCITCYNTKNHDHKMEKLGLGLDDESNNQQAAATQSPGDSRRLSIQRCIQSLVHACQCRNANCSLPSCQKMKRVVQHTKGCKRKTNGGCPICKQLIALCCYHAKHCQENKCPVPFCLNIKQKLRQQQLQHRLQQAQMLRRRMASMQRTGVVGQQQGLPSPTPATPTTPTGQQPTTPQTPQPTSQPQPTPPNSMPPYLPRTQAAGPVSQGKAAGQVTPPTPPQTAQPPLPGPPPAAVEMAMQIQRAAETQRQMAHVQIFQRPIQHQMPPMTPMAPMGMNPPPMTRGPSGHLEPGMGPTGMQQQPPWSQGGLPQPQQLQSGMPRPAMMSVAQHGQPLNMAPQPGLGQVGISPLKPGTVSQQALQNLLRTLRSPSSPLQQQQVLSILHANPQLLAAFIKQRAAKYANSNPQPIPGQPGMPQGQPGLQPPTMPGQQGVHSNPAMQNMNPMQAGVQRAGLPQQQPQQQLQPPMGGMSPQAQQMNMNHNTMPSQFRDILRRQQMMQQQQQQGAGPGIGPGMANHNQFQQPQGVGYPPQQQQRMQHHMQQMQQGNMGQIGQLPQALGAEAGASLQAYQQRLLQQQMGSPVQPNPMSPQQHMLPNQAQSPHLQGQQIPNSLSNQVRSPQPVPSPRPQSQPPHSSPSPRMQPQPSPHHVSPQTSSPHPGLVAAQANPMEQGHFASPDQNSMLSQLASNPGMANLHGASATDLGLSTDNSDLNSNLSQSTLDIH
Summary of the method: as §1

T1 sequence (Q92793 whole entry): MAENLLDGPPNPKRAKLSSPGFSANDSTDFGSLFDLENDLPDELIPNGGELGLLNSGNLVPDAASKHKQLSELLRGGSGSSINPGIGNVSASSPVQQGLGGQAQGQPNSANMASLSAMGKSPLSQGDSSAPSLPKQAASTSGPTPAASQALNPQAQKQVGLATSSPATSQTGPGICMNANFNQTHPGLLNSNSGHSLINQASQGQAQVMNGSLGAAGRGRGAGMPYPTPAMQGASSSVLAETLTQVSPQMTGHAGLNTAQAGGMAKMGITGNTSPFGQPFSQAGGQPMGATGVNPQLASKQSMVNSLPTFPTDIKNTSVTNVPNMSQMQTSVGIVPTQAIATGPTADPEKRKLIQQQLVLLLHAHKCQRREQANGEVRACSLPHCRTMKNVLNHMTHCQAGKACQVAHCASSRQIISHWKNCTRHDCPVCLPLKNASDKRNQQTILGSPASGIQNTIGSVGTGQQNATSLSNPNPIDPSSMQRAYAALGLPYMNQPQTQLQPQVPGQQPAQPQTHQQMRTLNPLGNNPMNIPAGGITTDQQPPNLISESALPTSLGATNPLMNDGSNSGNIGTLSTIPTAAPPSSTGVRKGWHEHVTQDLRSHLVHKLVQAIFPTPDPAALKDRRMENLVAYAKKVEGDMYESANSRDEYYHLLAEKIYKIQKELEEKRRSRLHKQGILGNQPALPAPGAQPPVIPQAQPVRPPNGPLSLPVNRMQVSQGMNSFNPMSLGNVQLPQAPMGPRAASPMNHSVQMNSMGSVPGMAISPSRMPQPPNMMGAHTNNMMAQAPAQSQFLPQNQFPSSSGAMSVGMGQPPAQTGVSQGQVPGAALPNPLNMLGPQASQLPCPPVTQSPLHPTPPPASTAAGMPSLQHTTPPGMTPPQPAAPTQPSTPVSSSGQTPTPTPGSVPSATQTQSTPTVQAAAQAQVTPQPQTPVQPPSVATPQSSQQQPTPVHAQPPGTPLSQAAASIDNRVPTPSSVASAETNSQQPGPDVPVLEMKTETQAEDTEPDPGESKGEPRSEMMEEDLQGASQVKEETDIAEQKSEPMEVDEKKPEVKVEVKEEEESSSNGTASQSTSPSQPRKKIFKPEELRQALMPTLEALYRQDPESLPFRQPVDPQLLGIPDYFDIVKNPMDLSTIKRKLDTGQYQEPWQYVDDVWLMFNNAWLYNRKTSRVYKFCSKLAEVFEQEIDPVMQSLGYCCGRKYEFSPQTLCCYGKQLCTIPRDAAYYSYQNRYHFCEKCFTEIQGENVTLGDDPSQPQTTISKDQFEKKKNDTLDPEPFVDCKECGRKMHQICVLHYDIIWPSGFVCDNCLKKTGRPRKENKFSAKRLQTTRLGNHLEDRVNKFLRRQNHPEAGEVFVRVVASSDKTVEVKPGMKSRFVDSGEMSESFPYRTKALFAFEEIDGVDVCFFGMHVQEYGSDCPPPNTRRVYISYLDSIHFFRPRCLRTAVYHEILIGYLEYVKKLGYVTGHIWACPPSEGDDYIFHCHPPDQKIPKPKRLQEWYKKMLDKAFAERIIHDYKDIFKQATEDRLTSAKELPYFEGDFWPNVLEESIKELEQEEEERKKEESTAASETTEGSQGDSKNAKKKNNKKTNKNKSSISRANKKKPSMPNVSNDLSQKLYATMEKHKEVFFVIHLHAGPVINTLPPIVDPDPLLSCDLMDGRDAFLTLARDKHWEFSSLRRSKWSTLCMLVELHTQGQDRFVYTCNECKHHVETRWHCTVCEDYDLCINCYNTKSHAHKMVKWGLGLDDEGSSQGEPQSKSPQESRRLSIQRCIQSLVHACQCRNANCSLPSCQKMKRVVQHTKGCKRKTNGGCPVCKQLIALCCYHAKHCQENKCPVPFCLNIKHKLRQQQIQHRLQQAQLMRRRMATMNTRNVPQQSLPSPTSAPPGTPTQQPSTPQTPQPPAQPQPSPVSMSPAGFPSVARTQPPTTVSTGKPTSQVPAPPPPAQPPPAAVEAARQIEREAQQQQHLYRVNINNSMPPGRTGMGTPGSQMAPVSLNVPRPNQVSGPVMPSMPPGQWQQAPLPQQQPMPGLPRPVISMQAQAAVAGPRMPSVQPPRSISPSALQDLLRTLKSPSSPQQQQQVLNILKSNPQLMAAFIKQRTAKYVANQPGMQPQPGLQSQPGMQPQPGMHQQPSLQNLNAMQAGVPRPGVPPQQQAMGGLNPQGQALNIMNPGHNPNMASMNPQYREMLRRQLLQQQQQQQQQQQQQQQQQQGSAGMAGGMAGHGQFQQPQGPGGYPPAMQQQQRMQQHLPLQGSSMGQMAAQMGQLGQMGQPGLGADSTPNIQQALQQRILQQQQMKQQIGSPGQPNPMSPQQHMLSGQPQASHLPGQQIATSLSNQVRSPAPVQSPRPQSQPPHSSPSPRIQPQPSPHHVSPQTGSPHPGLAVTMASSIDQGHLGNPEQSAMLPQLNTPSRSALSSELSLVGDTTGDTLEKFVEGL

`Cc1cc2c(N3CCCc4nc(-c5ccc(C(=O)NCC#Cc6ccc7occ([C@H]8CCC(=O)NC8=O)c7c6)nc5)ncc43)cc(C3CCOCC3)cc2n(C)c1=O` [Example B54, (R)-5-(5-(1,3-dimethyl-2-oxo-7-(tetrahydro-2H-pyran-4-yl)-1,2-dihydroquinolin-5-yl)-5,6,7,8-tetrahydropyrido[3,2-d]pyrimidin-2-yl)-N-(3-(3-(2,6-dioxopiperidin-3-yl)benzofuran-5-yl)prop-2-yn-1-yl)picolinamide] gave a DC50 (CBP) greater than 1000 nM, a Dmax (CBP) of less than 20% and a Dmax (p300) greater than 80%. The DC50 (p300) was less than 1 nM.

`Cc1cc2c(N3CCCc4nc(-c5ccc(C(=O)NCC#Cc6ccc7occ([C@@H]8CCC(=O)NC8=O)c7c6)nc5)ncc43)cc(C3CCOCC3)cc2n(C)c1=O` [Example B55, (S)-5-(5-(1,3-dimethyl-2-oxo-7-(tetrahydro-2H-pyran-4-yl)-1,2-dihydroquinolin-5-yl)-5,6,7,8-tetrahydropyrido[3,2-d]pyrimidin-2-yl)-N-(3-(3-(2,6-dioxopiperidin-3-yl)benzofuran-5-yl)prop-2-yn-1-yl)picolinamide] gave a DC50 (CBP) greater than 1000 nM, a Dmax (CBP) of less than 20% and a Dmax (p300) greater than 80%. The DC50 (p300) was 1 to 9.9 nM.

`Cc1cc2c(N3CCCc4nc(-c5ccc(C(=O)NCC#Cc6cc7c(C8CCC(=O)NC8=O)cccc7o6)nc5)ncc43)cc(C(C)C)nc2n(C)c1=O` (centres unmarked) [Example B56, N-(3-(4-(2,6-dioxopiperidin-3-yl)benzofuran-2-yl)prop-2-yn-1-yl)-5-(5-(2-isopropyl-6,8-dimethyl-7-oxo-7,8-dihydro-1,8-naphthyridin-4-yl)-5,6,7,8-tetrahydropyrido[3,2-d]pyrimidin-2-yl)picolinamide] showed a DC50 (CBP) greater than 1000 nM, a Dmax (CBP) of less than 20% and a Dmax (p300) greater than 80%. It also gave a DC50 (p300) of 1 to 9.9 nM.

In the case of `Cc1cc2c(N3CCOc4cc(-c5ccc(C(=O)NCC#Cc6ccc7occ(C8CCC(=O)NC8=O)c7c6)nc5)c(F)cc43)cc(N3CC4(COC4)C3)cc2n(C)c1=O` (centres unmarked) [Example B58, 5-(4-(1,3-dimethyl-2-oxo-7-(2-oxa-6-azaspiro[3.3]heptan-6-yl)-1,2-dihydro-quinolin-5-yl)-6-fluoro-3,4-dihydro-2H-benzo[b][1,4]oxazin-7-yl)-N-(3-(3-(2,6-dioxopiperidin-3-yl)benzofuran-5-yl)prop-2-yn-1-yl)picolinamide], the DC50 (CBP) is reported as greater than 1000 nM, the Dmax (CBP) is reported as less than 20% and the Dmax (p300) is reported as greater than 80%. The DC50 (p300) was 1 to 9.9 nM.

Work on `Cc1cc(-c2ncc(N(C)c3cc(C4CCOCC4)cc4c3cc(C)c(=O)n4C)cn2)cnc1C(=O)NCC#Cc1cc2c(C3CCC(=O)NC3=O)cccc2o1` (centres unmarked) [Example B59, 5-(5-((1,3-dimethyl-2-oxo-7-(tetrahydro-2H-pyran-4-yl)-1,2-dihydroquinolin-5-yl) (methyl)amino)pyrimidin-2-yl)-N-(3-(4-(2,6-dioxopiperidin-3-yl)benzofuran-2-yl)prop-2-yn-1-yl)-3-methylpicolinamide] yielded a DC50 (CBP) greater than 1000 nM, a Dmax (CBP) of less than 20% and a Dmax (p300) greater than 80%. For the same compound, the DC50 (p300) was 1 to 9.9 nM.

Compound `Cc1cc2c(N3CCCc4nc(-c5ccc(C(=O)NCC#Cc6oc7cccc(C8CCC(=O)NC8=O)c7c6F)nc5)ncc43)cc(C3CCOCC3)cc2n(C)c1=O` (centres unmarked) [Example B60, 5-(5-(1,3-dimethyl-2-oxo-7-(tetrahydro-2H-pyran-4-yl)-1,2-dihydroquinolin-5-yl)-5,6,7,8-tetrahydropyrido[3,2-d]pyrimidin-2-yl)-N-(3-(4-(2,6-dioxopiperidin-3-yl)-3-fluorobenzo-furan-2-yl)prop-2-yn-1-yl)picolinamide] has a DC50 (CBP) greater than 1000 nM, a Dmax (CBP) of less than 20% and a Dmax (p300) greater than 80%. It also gave a DC50 (p300) of 1 to 9.9 nM.

`Cc1cc2c(N3CCCc4nc(-c5ccc(C(=O)NCC#Cc6ccc7occ(C8CCC(=O)NC8=O)c7c6)nc5)ncc43)cc(N3CCOCC3)nc2n(C)c1=O` (centres unmarked) [Example B61, 5-(5-(6,8-dimethyl-2-morpholino-7-oxo-7,8-dihydro-1,8-naphthyridin-4-yl)-5,6,7,8-tetrahydropyrido[3,2-d]pyrimidin-2-yl)-N-(3-(3-(2,6-dioxopiperidin-3-yl)benzofuran-5-yl)prop-2-yn-1-yl)picolinamide] showed a DC50 (CBP) greater than 1000 nM, a Dmax (CBP) of less than 20% and a Dmax (p300) of 60 to 79%. The DC50 (p300) was 1 to 9.9 nM.

For `Cc1cc2c(N3CCCc4nc(-c5ccc(C(=O)NCC#Cc6ccc7occ(C8CCC(=O)NC8=O)c7c6)nc5)ncc43)nc(N3CCOCC3)cc2n(C)c1=O` (centres unmarked) [Example B62, 5-(5-(1,3-dimethyl-7-morpholino-2-oxo-1,2-dihydro-1,6-naphthyridin-5-yl)-5,6,7,8-tetrahydropyrido[3,2-d]pyrimidin-2-yl)-N-(3-(3-(2,6-dioxopiperidin-3-yl)benzofuran-5-yl)prop-2-yn-1-yl)picolinamide], the DC50 (CBP) was greater than 1000 nM, the Dmax (CBP) was less than 20% and the Dmax (p300) was greater than 80%. The DC50 (p300) was 1 to 9.9 nM.

With `Cc1cc2c(N3CCOc4cc(-c5ccc(C(=O)NCC#Cc6ccc7occ(C8CCC(=O)NC8=O)c7c6)nc5)c(F)cc43)cc(N3CC(C)(O)C3)cc2n(C)c1=O` (centres unmarked) [Example B63, N-(3-(3-(2,6-dioxopiperidin-3-yl)benzofuran-5-yl)prop-2-yn-1-yl)-5-(6-fluoro-4-(7-(3-hydroxy-3-methylazetidin-1-yl)-1,3-dimethyl-2-oxo-1,2-dihydroquinolin-5-yl)-3,4-dihydro-2H-benzo[b][1,4]oxazin-7-yl) picolinamide] the DC50 (CBP) was 10 to 99 nM, the Dmax (CBP) was 20 to 39% and the Dmax (p300) was greater than 80%. The DC50 (p300) was 1 to 9.9 nM.

`Cc1cc2c(N3CCCc4cc(-c5ccc(C(=O)NCC#Cc6ccc7occ(C8CCC(=O)NC8=O)c7c6)nc5)nnc43)cc(C3CCOCC3)cc2n(C)c1=O` (centres unmarked) [Example B64, 5-(8-(1,3-dimethyl-2-oxo-7-(tetrahydro-2H-pyran-4-yl)-1,2-dihydroquinolin-5-yl)-5,6,7,8-tetrahydropyrido[2,3-c]pyridazin-3-yl)-N-(3-(3-(2,6-dioxopiperidin-3-yl)benzofuran-5-yl)prop-2-yn-1-yl)picolinamide] gave a DC50 (CBP) greater than 1000 nM, a Dmax (CBP) of less than 20% and a Dmax (p300) greater than 80%. It also gave a DC50 (p300) of 1 to 9.9 nM.

Compound `Cc1cc2c(-c3cccc4cc(-c5ccc(C(=O)NCC#Cc6ccc7occ(C8CCC(=O)NC8=O)c7c6)nc5)ncc34)nc(N3CC(O)C3)cc2n(C)c1=O` (centres unmarked) [Example B66, N-(3-(3-(2,6-dioxopiperidin-3-yl)benzofuran-5-yl)prop-2-yn-1-yl)-5-(8-(7-(3-hydroxy-azetidin-1-yl)-1,3-dimethyl-2-oxo-1,2-dihydro-1,6-naphthyridin-5-yl)isoquinolin-3-yl) picolinamide] has a DC50 (CBP) greater than 1000 nM, a Dmax (CBP) of less than 20% and a Dmax (p300) greater than 80%. The DC50 (p300) was less than 1 nM.

For `Cc1cc2c(N3CCCc4nc(-c5ccc(C(=O)NCC#Cc6cc7c(C8CCC(=O)NC8=O)cccc7o6)nc5)ncc43)cccc2n(C)c1=O` (centres unmarked) [Example B67, 5-(5-(1,3-dimethyl-2-oxo-1,2-dihydroquinolin-5-yl)-5,6,7,8-tetrahydropyrido[3,2-d]pyrimidin-2-yl)-N-(3-(4-(2,6-dioxopiperidin-3-yl)benzofuran-2-yl)prop-2-yn-1-yl)picolinamide], the DC50 (CBP) was 100 to 999 nM, the Dmax (CBP) was less than 20% and the Dmax (p300) was greater than 80%. For the same compound, the DC50 (p300) was less than 1 nM.

For `Cc1cc2c(N3CCCc4nc(-c5ccc(C(=O)NCC#Cc6ccc7occ(C8CCC(=O)NC8=O)c7c6)nc5)ncc43)nc(N3CC(F)C3)cc2n(C)c1=O` (centres unmarked) [Example B68, N-(3-(3-(2,6-dioxopiperidin-3-yl)benzofuran-5-yl)prop-2-yn-1-yl)-5-(5-(7-(3-fluoroazetidin-1-yl)-1,3-dimethyl-2-oxo-1,2-dihydro-1,6-naphthyridin-5-yl)-5,6,7,8-tetrahydropyrido [3,2-d]pyrimidin-2-yl)picolinamide], the DC50 (CBP) was greater than 1000 nM, the Dmax (CBP) was less than 20% and the Dmax (p300) was 60 to 79%. For the same compound, the DC50 (p300) was 1 to 9.9 nM.

`Cc1cc2c(N3CCCc4nc(-c5ccc(C(=O)NCC#Cc6ccc7occ(C8CCC(=O)NC8=O)c7c6)nc5)ncc43)cncc2n(C)c1=O` (centres unmarked) [Example B69, 5-(5-(1,3-dimethyl-2-oxo-1,2-dihydro-1,7-naphthyridin-5-yl)-5,6,7,8-tetrahydropyrido [3,2-d]pyrimidin-2-yl)-N-(3-(3-(2,6-dioxo-piperidin-3-yl)benzofuran-5-yl)prop-2-yn-1-yl)picolinamide] showed a DC50 (CBP) greater than 1000 nM, a Dmax (CBP) of less than 20% and a Dmax (p300) of 40 to 59%. The DC50 (p300) was 1 to 9.9 nM.

Work on `Cc1cc(-c2ncc3c(n2)CCCN3c2nc(N3CCOCC3)cc3c2cc(C)c(=O)n3C)cnc1C(=O)NCC#Cc1ccc2occ(C3CCC(=O)NC3=O)c2c1` (centres unmarked) [Example B71, 5-(5-(1,3-dimethyl-7-morpholino-2-oxo-1,2-dihydro-1,6-naphthyridin-5-yl)-5,6,7,8-tetrahydropyrido[3,2-d]pyrimidin-2-yl)-N-(3-(3-(2,6-dioxopiperidin-3-yl)benzofuran-5-yl)prop-2-yn-1-yl)-3-methylpicolinamide] yielded a DC50 (CBP) greater than 1000 nM, a Dmax (CBP) of less than 20% and a Dmax (p300) greater than 80%. It also gave a DC50 (p300) of 1 to 9.9 nM.

`Cc1cc2c(N3CCCc4nc(-c5ccc(C(=O)NCC#Cc6ccc7occ([C@H]8CCC(=O)NC8=O)c7c6)nc5)ncc43)nc(N3CCOCC3)cc2n(C)c1=O` [Example B72, (R)-5-(5-(1,3-dimethyl-7-morpholino-2-oxo-1,2-dihydro-1,6-naphthyridin-5-yl)-5,6,7,8-tetrahydropyrido[3,2-d]pyrimidin-2-yl)-N-(3-(3-(2,6-dioxopiperidin-3-yl)benzofuran-5-yl)prop-2-yn-1-yl)picolinamide] was tested, and the DC50 (CBP) was greater than 1000 nM, the Dmax (CBP) was less than 20% and the Dmax (p300) was 60 to 79%. The DC50 (p300) was 1 to 9.9 nM.

`Cc1cc2c(N3CCCc4nc(-c5ccc(C(=O)NCC#Cc6ccc7occ([C@@H]8CCC(=O)NC8=O)c7c6)nc5)ncc43)nc(N3CCOCC3)cc2n(C)c1=O` [Example B73, (S)-5-(5-(1,3-dimethyl-7-morpholino-2-oxo-1,2-dihydro-1,6-naphthyridin-5-yl)-5,6,7,8-tetrahydropyrido[3,2-d]pyrimidin-2-yl)-N-(3-(3-(2,6-dioxopiperidin-3-yl)benzofuran-5-yl)prop-2-yn-1-yl)picolinamide] gave a DC50 (CBP) greater than 1000 nM, a Dmax (CBP) of less than 20% and a Dmax (p300) greater than 80%. It also gave a DC50 (p300) of 1 to 9.9 nM.
